{"source": "paper PMC6411751", "about": "“Use of machine learning to identify novel, behaviorally active antagonists of the insect odorant receptor co-receptor (Orco) subunit” (Scientific Reports, 2019)", "key": {"[1]": {"test_system": "Orco subunit of the Hessian fly (Mayetiola destructor)", "conditions": "cited from earlier work"}, "[2]": {"test_system": "Dmel\\Or13a", "parameters": "method as in ref 1 Münch, D., Galizia, C.G. DoOR 2.0 (2016)", "conditions": "ref 1 Münch, D., Galizia, C.G. DoOR 2.0 (2016); cited from earlier work"}, "[3]": {"test_system": "Dmel\\Or85b", "parameters": "method as in ref 1 Münch, D., Galizia, C.G. DoOR 2.0 (2016)", "conditions": "ref 1 Münch, D., Galizia, C.G. DoOR 2.0 (2016); cited from earlier work"}, "[4]": {"test_system": "Dmel\\Or67a", "parameters": "method as in ref 1 Münch, D., Galizia, C.G. DoOR 2.0 (2016)", "conditions": "ref 1 Münch, D., Galizia, C.G. DoOR 2.0 (2016); cited from earlier work"}, "[5]": {"test_system": "OR expressing neurons", "parameters": "method as in PMID 22272331", "conditions": "directly injected into sensilla at ≥100 µM; cited from earlier work"}, "[6]": {"test_system": "oocyte", "assay": "Oocyte toxicity seen during Orco antagonist screening", "conditions": "at concentrations higher than 300 µM", "source_text": "Figure 4 (A) Scatter plot of predictions (Bayesian scores) from model A and model B for the 138 highest probability predicted actives. […] (B) Cluster membership of the 138 most likely predicted actives and distribution of experimentally tested compounds. […] (D) Antagonist activity of 39 predicted Orco antagonists, as well as the activity of 16 known Orco antagonists (denoted by a dot (•) preceding the compound name). […] Data are presented as mean ± SEM (n = 3–10)."}, "[7]": {"target": "T1, Agam\\Orco (Anopheles gambiae, UniProt Q7QCC7)", "T1 construct": "expressed in transfected cells; host or cells: Xenopus laevis oocytes injected with capped cRNA (plasmid pT7TS, gift of L. Zwiebel)", "T1 sequence (Q7QCC7 1-478)": "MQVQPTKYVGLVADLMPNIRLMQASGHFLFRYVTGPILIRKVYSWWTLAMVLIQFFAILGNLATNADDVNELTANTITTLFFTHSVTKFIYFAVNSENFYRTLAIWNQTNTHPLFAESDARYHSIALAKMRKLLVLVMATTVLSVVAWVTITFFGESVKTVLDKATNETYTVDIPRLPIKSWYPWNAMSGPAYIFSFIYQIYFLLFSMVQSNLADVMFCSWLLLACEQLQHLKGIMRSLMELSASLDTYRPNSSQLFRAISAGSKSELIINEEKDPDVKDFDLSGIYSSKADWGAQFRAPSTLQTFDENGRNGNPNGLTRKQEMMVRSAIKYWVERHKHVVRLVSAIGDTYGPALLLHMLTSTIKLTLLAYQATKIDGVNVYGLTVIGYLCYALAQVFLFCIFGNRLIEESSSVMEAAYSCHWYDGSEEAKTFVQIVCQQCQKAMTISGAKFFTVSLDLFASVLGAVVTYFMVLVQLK", "assay": "cell-based", "assay_type": "cell-based", "method": "A 2 hr incubation with collagenase B (Roche) was used to remove follicle cells from oocytes. Capped cRNA for Agam\\Orco was synthesized using mMessage mMachine kits (Thermo Fisher Scientific). 25 ng of cRNA was injected into stage V–VI oocytes, followed by a 2–5 day incubation at 18 °C in Barth’s saline (in mM: 88 NaCl, 1 KCl, 2.4 NaHCO3, 0.3 CaNO3, 0.41 CaCl2, 0.82 MgSO4, 15 HEPES, pH 7.4, and 0.05 g/L tetracycline, 0.05 g/L ciprofloxacin, 0.1 g/L amikacin) prior to electrophysiological recordings.\nAn automated parallel electrophysiology system (OpusExpress 6000 A, Molecular Devices) was used to record Orco agonist (OLC12) or odorant induced currents under two-electrode voltage clamp. Oocytes were perfused with ND96 (in mM: 96 NaCl, 2 KCl, 1 CaCl2, 1 MgCl2, 5 HEPES, pH 7.4). DMSO was used to prepare 1 M or 100 mM stock solutions of test compounds, which were then diluted in ND96 on the day of the experiment. Compounds were applied at a flow rate of 1.0 mL/min, with extensive washing in ND96 at 4.6 mL/min between applications. Micropipettes with resistances of 0.2–2.0 MΩ were filled with 3 M KCl. The holding potential was −70 mV. Current responses were filtered (4-pole, Bessel, low pass) at 20 Hz (−3 db) and sampled at 100 Hz. OpusXpress 1.1 software (Molecular Devices) was used to capture and store current responses.\nTo measure antagonist activity at Orco, Agam\\Orco was activated by the Orco agonist OLC12[34]. […] The current response to OLC12 in the presence of antagonist candidate was compared to the mean of the preceding two responses to OLC12 alone and presented as a percentage[34],[35]. This value was then normalized to the value obtained when the assay was run in the absence of antagonist candidate (sham).\nDuring development of the training panel (Fig. 2, Tables S1 and S2), all compounds not previously known to be Orco antagonists were tested at a concentration of 3 mM. […] Concentration-inhibition curves were constructed for all compounds eliciting >20 percent inhibition at 3 mM. The same concentration and criteria were used during screening of predicted actives (Fig. 4D) and predicted inactives (Fig. 5C).\nClampfit 9.1 software (Molecular Devices) was used to perform initial analysis of electrophysiological data. Prism 7 (Graphpad) was used for curve fitting. Concentration-inhibition data were fit to the equation: I = Imax/(1 + (X/IC50)^n) where I represents the current response at a given concentration of inhibitor, X; Imax is the maximal response in the absence of inhibitor; IC50 is the concentration of inhibitor present that allows a half maximal response from OLC12; n is the apparent Hill coefficient."}}}
{"smiles": "CCc1ccc(NC(=O)CSc2nnc(-c3cccnc3)n2CC)cc1", "note": "[VUAA1, N-(4-ethylphenyl)-2-((4-ethyl-5-(3-pyridinyl)-4H-1,2,4-triazol-3-yl)thio)acetamide]", "values": [{"measurement": "sensitivity of Orco subunit to the agonist", "setting": "[1]", "result": "insensitive"}]}
{"smiles": "C=CC(C)(O)CCC=C(C)C", "note": "(centres unmarked) [linalool]", "values": [{"measurement": "scaled response from DoOR (max = 1.0)", "setting": "[2]", "result": 0.164}, {"measurement": "scaled response from DoOR (max = 1.0)", "setting": "[3]", "result": 0.163}, {"measurement": "scaled response from DoOR (max = 1.0)", "setting": "[4]", "result": 0.158}]}
{"smiles": "CCn1c(SCC(=O)N2c3ccccc3Sc3ccccc32)nnc1-c1ccco1", "note": "[VU0183254]", "values": [{"measurement": "spontaneous firing rate of OR expressing neurons", "setting": "[5]", "result": "reduce the spontaneous firing rate"}]}
{"smiles": "Cc1ccc(C(C)C)cc1O", "note": "[carvacrol]", "values": [{"measurement": "oocyte toxicity", "setting": "[6]", "result": "oocyte toxicity at higher concentrations"}, {"measurement": "decrease in potency relative to 3I6MC", "setting": "[7]; Agam\\Orco IC50 compared with 3I6MC", "result": 3.6, "unit": "fold"}, {"measurement": "IC50", "setting": "[7]; Table S1, training actives, Agam\\Orco activated by 30 µM OLC12, mean ± SEM (n = 3-8), read-out: IC50", "result": "146 ± 21", "unit": "µM"}]}
